By pIC50 is commonly meant −log10 of the IC50, conventionally taken in molar units. Higher therefore signals a small IC50.

pIC50: −log10 of the molar value.

This experiment concerns the target T1, ROMK (Kir1.1) channel (Homo sapiens, UniProt P48048).
T1 sequence (P48048 1-391): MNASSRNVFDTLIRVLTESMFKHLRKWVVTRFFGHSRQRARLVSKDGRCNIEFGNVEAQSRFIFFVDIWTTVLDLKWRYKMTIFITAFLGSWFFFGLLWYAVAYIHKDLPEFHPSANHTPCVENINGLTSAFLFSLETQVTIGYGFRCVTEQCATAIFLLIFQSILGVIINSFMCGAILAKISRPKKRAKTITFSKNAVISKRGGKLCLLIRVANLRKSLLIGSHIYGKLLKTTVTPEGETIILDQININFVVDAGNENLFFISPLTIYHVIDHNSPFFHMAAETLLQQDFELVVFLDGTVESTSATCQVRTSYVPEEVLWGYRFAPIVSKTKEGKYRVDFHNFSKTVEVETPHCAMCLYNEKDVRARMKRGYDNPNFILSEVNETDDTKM
Put plainly: Thallium Flux Assay. The format is cell-based. The method, then: A Thallium Flux Assay was performed on each of the final product compounds in the Examples. When the final product of an Example was an HCl salt, the salt was run in the Assay. This assay has been described previously; see, e.g., PCT Published Application WO 2013/062900.
`Cc1c([C@@H](O)CN2CCC3(CC2)CCN(C2=CC(=O)OC2)C(C)C3)ccc2c1COC2=O` (single isomer, unassigned) [Example 32] gave a pIC50 of 7.31.

`Cc1c([C@@H](O)CN2CCC3(CC2)CCN(C2=CC(=O)OC2)C(C)C3)ccc2c1COC2=O` (single isomer, unassigned) [Example 33]: the pIC50 was 7.38.

Take `Cc1cc(-n2cnnn2)cnc1C(O)CN1CCC2(CC1)CCN(C1=CC(=O)OC1)CC2` (stereo in doubt) [Example 21, (S)-4-(9-(2-hydroxy-2-(3-methyl-5-(1H-tetrazol-1-yl)pyridin-2-yl)ethyl)-3,9-diazaspiro[5.5]undecan-3-yl)furan-2(5H)-one]: the negative logarithm of the IC50 (pIC50) was 6.74.

The compound `Cc1nc(-n2cnnn2)ccc1[C@@H](O)CN1CCC2(CC1)CCN(C1=C(C3CC3)C(=O)OC1)CC2` (stereo in doubt) [Example 43, 3-cyclopropyl-4-(9-(2-hydroxy-2-(2-methyl-6-(1H-tetrazol-1-yl)pyridin-3-yl)ethyl)-3,9-diazaspiro[5.5]undecan-3-yl)furan-2(5H)-one] gave a negative-log IC50 (pIC50) of 7.80.

`O=C1C=C(N2CCC3(CCN(CCc4ccc5c(c4)COC5=O)CC3)CC2)CO1` [Example 1, 5-(2-(9-(5-oxo-2,5-dihydrofuran-3-yl)-3,9-diazaspiro[5.5]undecan-3-yl)ethyl)isobenzofuran-1(3H)-one] showed a negative-log IC50 (pIC50) of 7.77.

In the case of `Cc1c(CCN2CCC3(CC2)CCN(C2=CC(=O)OC2)CC3)ccc2c1COC2=O` [Example 2, 4-methyl-5-(2-(9-(5-oxo-2,5-dihydrofuran-3-yl)-3,9-diazaspiro[5.5]undecan-3-yl)ethyl)isobenzofuran-1(3H)-one], the pIC50 is 7.51.

`Cc1c(CCN2CCC3(CC2)CCN(c2c(C)c(=O)c2=O)CC3)ccc2c1COC2=O` [Example 3, 3-methyl-4-(9-(2-(4-methyl-1-oxo-1,3-dihydroisobenzofuran-5-yl)ethyl)-3,9-diazaspiro[5.5]undecan-3-yl)cyclobut-3-ene-1,2-dione] had a negative-log IC50 (pIC50) of 7.03.

`CO[C@@H](CN1CCC2(CC1)CCN(c1c(C)c(=O)c1=O)CC2)c1ccc2c(c1C)COC2=O` [Example 4, (R)-3-(9-(2-methoxy-2-(4-methyl-1-oxo-1,3-dihydroisobenzofuran-5-yl)ethyl)-3,9-diazaspiro[5.5]undecan-3-yl)-4-methylcyclobut-3-ene-1,2-dione] showed a negative logarithm of the IC50 (pIC50) of 6.64.

In turn, `Cc1c([C@H](O)CN2CCC3(CC2)CCN(C2=CC(=O)OC2)CC3)ccc2c1COC2=O` [Example 5, (S)-5-(1-hydroxy-2-(9-(5-oxo-2,5-dihydrofuran-3-yl)-3,9-diazaspiro[5.5]undecan-3-yl)ethyl)-4-methylisobenzofuran-1(3H)-one] showed a negative-log IC50 (pIC50) of 7.20.

`CC1=C(N2CCC3(CCN(C[C@H](O)c4cccc(-n5cnnn5)n4)CC3)CC2)COC1=O` [Example 6A, (S)-4-(9-(2-(6-(1H-tetrazol-1-yl)pyridin-2-yl)-2-hydroxyethyl)-3,9-diazaspiro[5.5]undecan-3-yl)-3-methylfuran-2(5H)-one]: the pIC50 is 7.66.

On to `CC1=C(N2CCC3(CCN(C[C@@H](O)c4cccc(-n5cnnn5)n4)CC3)CC2)COC1=O` [Example 6B, (R)-4-(9-(2-(6-(1H-tetrazol-1-yl)pyridin-2-yl)-2-hydroxyethyl)-3,9-diazaspiro[5.5]undecan-3-yl)-3-methylfuran-2(5H)-one], for which the pIC50 is 7.70.

`CC1=C(N2CCC3(CCN(C[C@H](O)c4ccc5c(c4C)COC5=O)CC3)CC2)COC1=O` [Example 7, (R)-5-(1-hydroxy-2-(9-(4-methyl-5-oxo-2,5-dihydrofuran-3-yl)-3,9-diazaspiro[5.5]undecan-3-yl)ethyl)-4-methylisobenzofuran-1(3H)-one] had a pIC50 of 7.89.

In turn, `Cc1c([C@@H](O)CN2CCC3(CC2)CCN(C2=CC(=O)OC2)CC3)ccc2c1COC2=O` [Example 8, (R)-5-(1-hydroxy-2-(9-(5-oxo-2,5-dihydrofuran-3-yl)-3,9-diazaspiro[5.5]undecan-3-yl)ethyl)-4-methylisobenzofuran-1(3H)-one] showed a pIC50 of 7.31.

For `COc1cc(C#N)ncc1[C@@H](O)CN1CCC2(CC1)CCN(C1=CC(=O)OC1)CC2` [Example 9, (R)-5-(1-hydroxy-2-(9-(5-oxo-2,5-dihydrofuran-3-yl)-3,9-diazaspiro[5.5]undecan-3-yl)ethyl)-4-methoxypicolinonitrile], the negative logarithm of the IC50 (pIC50) was 6.66.

For `C[C@@H]1Cc2cc(C(O)CN3CCC4(CC3)CCN(C3=CC(=O)OC3)CC4)ccc2C(=O)O1` (stereo partly drawn) [Example 10, (3R)-6-(1-hydroxy-2-(9-(5-oxo-2,5-dihydrofuran-3-yl)-3,9-diazaspiro[5.5]undecan-3-yl)ethyl)-3-methylisochroman-1-one], the negative logarithm of the IC50 (pIC50) was 6.22.

`C[C@H]1Cc2cc([C@@H](O)CN3CCC4(CC3)CCN(C3=CC(=O)OC3)CC4)ccc2C(=O)O1` [Example 11, (S)-6-((R)-1-hydroxy-2-(9-(5-oxo-2,5-dihydrofuran-3-yl)-3,9-diazaspiro[5.5]undecan-3-yl)ethyl)-3-methylisochroman-1-one] gave a negative-log IC50 (pIC50) of 6.74.

In the case of `C[C@H]1Cc2cc([C@H](O)CN3CCC4(CC3)CCN(C3=CC(=O)OC3)CC4)ccc2C(=O)O1` [Example 12, (S)-6-((S)-1-hydroxy-2-(9-(5-oxo-2,5-dihydrofuran-3-yl)-3,9-diazaspiro[5.5]undecan-3-yl)ethyl)-3-methylisochroman-1-one], the negative-log IC50 (pIC50) is 6.16.

The compound `Cc1nc(-n2cnnn2)ccc1[C@@H](O)CN1CCC2(CC1)CCN(C1=CC(=O)OC1)CC2` [Example 13, (R)-4-(9-(2-hydroxy-2-(2-methyl-6-(1H-tetrazol-1-yl)pyridin-3-yl)ethyl)-3,9-diazaspiro[5.5]undecan-3-yl)furan-2(5H)-one] showed a negative-log IC50 (pIC50) of 7.85.

As to `Cc1nc(-n2cnnn2)ccc1[C@H](O)CN1CCC2(CC1)CCN(C1=CC(=O)OC1)CC2` [Example 14, (S)-4-(9-(2-hydroxy-2-(2-methyl-6-(1H-tetrazol-1-yl)pyridin-3-yl)ethyl)-3,9-diazaspiro[5.5]undecan-3-yl)furan-2(5H)-one], the negative logarithm of the IC50 (pIC50) was 7.62.

As to `O=C1C=C(N2CCC3(CCN(CC(O)c4cnc(-n5cnnn5)nc4)CC3)CC2)CO1` (centres unmarked) [Example 15, 4-(9-(2-(2-(1H-tetrazol-1-yl)pyrimidin-5-yl)-2-hydroxyethyl)-3,9-diazaspiro[5.5]undecan-3-yl)furan-2(5H)-one], the negative-log IC50 (pIC50) is 6.35.

Take `O=C1C=C(N2CCC3(CCN(C[C@H](O)c4ccc(-n5cnnn5)nn4)CC3)CC2)CO1` [Example 16, (S)-4-(9-(2-(6-(1H-tetrazol-1-yl)pyridazin-3-yl)-2-hydroxyethyl)-3,9-diazaspiro[5.5]undecan-3-yl)furan-2(5H)-one]: the negative-log IC50 (pIC50) was 7.39.

As to `O=C1C=C(N2CCC3(CCN(C[C@@H](O)c4ccc(-n5cnnn5)nn4)CC3)CC2)CO1` [Example 17, (R)-4-(9-(2-(6-(1H-tetrazol-1-yl)pyridazin-3-yl)-2-hydroxyethyl)-3,9-diazaspiro[5.5]undecan-3-yl)furan-2(5H)-one], the pIC50 was 7.04.

`O=C1C=C(N2CCC3(CCN(C[C@H](O)c4ccc(-n5cnnn5)nc4)CC3)CC2)CO1` [Example 18, (R)-4-(9-(2-(6-(1H-tetrazol-1-yl)pyridin-3-yl)-2-hydroxyethyl)-3,9-diazaspiro[5.5]undecan-3-yl)furan-2(5H)-one] showed a negative logarithm of the IC50 (pIC50) of 7.80.

The compound `O=C1C=C(N2CCC3(CCN(C[C@@H](O)c4ccc(-n5cnnn5)nc4)CC3)CC2)CO1` [Example 19, (S)-4-(9-(2-(6-(1H-tetrazol-1-yl)pyridin-3-yl)-2-hydroxyethyl)-3,9-diazaspiro[5.5]undecan-3-yl)furan-2(5H)-one] gave a pIC50 of 7.13.

For `Cc1cc(-n2cnnn2)cnc1[C@@H](O)CN1CCC2(CC1)CCN(C1=CC(=O)OC1)CC2` [Example 20, (S)-4-(9-(2-hydroxy-2-(3-methyl-5-(1H-tetrazol-1-yl)pyridin-2-yl)ethyl)-3,9-diazaspiro[5.5]undecan-3-yl)furan-2(5H)-one], the pIC50 was 7.01.

Regarding `O=C1C=C(N2CCC3(CCN(C[C@H](O)c4ccc(-n5cnnn5)cc4F)CC3)CC2)CO1` [Example 22, (R)-4-(9-(2-(2-fluoro-4-(1H-tetrazol-1-yl)phenyl)-2-hydroxyethyl)-3,9-diazaspiro[5.5]undecan-3-yl)furan-2(5H)-one], the negative logarithm of the IC50 (pIC50) was 7.77.

In turn, `O=C1C=C(N2CCC3(CCN(C[C@@H](O)c4ccc(-n5cnnn5)cc4F)CC3)CC2)CO1` [Example 23, (S)-4-(9-(2-(2-fluoro-4-(1H-tetrazol-1-yl)phenyl)-2-hydroxyethyl)-3,9-diazaspiro[5.5]undecan-3-yl)furan-2(5H)-one] showed a negative-log IC50 (pIC50) of 7.55.

`Cc1cc(-n2cnnn2)ccc1[C@@H](O)CN1CCC2(CC1)CCN(C1=CC(=O)OC1)CC2` [Example 24, (R)-4-(9-(2-hydroxy-2-(2-methyl-4-(1H-tetrazol-1-yl)phenyl)ethyl)-3,9-diazaspiro[5.5]undecan-3-yl)furan-2(5H)-one] showed a pIC50 of 7.40.

The compound `Cc1cc(-n2cnnn2)ccc1[C@H](O)CN1CCC2(CC1)CCN(C1=CC(=O)OC1)CC2` [Example 25, (S)-4-(9-(2-hydroxy-2-(2-methyl-4-(1H-tetrazol-1-yl)phenyl)ethyl)-3,9-diazaspiro[5.5]undecan-3-yl)furan-2(5H)-one] showed a pIC50 of 7.66.

Values taken from US9839629B2, “Inhibitors of the renal outer medullary potassium channel” (Merck Sharp & Dohme Corp., priority 2013, dated 2017).
